Source: article PMC6437697 (Journal of Medicinal Chemistry, 2019)

Experiments:
Assay in all cases: KINOMEscan
Format in all cases: binding
Settings in all cases: read-out: % control activity remaining
EGFR(L858R,T790M) = target: T1, EGFR(L858R,T790M) (Homo sapiens, UniProt P00533, L858R/T790M)
T1 construct: purchased Eurofins DiscoverX KINOMEscan

ROCK1 = target: T2, ROCK1 (Homo sapiens, UniProt Q13464)
T2 construct: purchased Eurofins DiscoverX KINOMEscan

AKT1 = target: T3, AKT1 (Homo sapiens, UniProt P31749)
T3 construct: purchased Eurofins DiscoverX KINOMEscan
T3 sequence (P31749 whole entry): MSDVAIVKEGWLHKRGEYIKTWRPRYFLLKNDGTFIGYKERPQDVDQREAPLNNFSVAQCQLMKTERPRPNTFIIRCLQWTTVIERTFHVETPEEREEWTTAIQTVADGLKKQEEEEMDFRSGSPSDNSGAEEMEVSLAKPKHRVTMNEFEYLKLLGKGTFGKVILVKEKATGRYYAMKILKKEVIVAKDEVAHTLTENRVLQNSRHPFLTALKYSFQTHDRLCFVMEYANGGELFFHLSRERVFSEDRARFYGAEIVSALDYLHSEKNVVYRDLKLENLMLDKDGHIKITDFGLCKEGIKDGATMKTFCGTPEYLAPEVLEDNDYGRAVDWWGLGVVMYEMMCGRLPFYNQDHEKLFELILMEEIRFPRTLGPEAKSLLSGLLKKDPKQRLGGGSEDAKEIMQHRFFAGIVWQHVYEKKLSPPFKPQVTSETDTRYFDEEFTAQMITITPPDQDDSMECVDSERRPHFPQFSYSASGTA

TAOK3 = target: T4, TAOK3 (Homo sapiens, UniProt Q9H2K8)
T4 construct: purchased Eurofins DiscoverX KINOMEscan
T4 sequence (Q9H2K8 1-898): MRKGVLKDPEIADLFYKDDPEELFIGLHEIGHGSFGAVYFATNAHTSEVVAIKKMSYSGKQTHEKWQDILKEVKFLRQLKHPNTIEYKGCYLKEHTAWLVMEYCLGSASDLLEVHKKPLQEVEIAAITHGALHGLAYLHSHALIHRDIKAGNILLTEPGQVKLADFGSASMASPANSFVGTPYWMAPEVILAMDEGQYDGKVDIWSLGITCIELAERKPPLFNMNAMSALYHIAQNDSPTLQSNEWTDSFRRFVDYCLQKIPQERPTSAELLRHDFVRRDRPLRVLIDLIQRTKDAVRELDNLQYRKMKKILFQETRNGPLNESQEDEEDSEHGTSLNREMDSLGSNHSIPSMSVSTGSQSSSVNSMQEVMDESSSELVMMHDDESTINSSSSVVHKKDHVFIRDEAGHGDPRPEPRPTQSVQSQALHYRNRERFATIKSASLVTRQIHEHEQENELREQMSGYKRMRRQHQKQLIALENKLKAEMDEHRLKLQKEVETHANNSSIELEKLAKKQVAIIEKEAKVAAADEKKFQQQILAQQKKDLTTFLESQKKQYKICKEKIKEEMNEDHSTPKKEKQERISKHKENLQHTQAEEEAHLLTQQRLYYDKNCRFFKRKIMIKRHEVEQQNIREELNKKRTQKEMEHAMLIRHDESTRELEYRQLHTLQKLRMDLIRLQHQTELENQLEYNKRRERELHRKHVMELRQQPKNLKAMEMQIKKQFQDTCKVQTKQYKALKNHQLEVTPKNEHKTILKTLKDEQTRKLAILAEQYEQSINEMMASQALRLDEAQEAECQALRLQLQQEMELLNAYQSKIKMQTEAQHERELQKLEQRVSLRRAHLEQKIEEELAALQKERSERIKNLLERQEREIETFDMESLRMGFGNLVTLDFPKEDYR

p38-beta = target: T5, p38-beta (Homo sapiens, UniProt Q15759)
T5 construct: purchased Eurofins DiscoverX KINOMEscan
T5 sequence (Q15759 whole entry): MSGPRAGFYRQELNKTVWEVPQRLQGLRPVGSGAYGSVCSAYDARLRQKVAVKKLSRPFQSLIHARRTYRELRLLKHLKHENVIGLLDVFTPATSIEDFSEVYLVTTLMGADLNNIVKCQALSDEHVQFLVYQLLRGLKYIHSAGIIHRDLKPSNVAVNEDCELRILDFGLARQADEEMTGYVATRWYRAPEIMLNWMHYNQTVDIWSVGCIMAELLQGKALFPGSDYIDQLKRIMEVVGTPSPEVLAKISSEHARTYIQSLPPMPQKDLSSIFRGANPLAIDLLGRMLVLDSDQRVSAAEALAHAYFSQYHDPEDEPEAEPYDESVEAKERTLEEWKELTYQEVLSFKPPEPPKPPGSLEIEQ

HIPK4 = target: T6, HIPK4 (Homo sapiens, UniProt Q8NE63)
T6 construct: purchased Eurofins DiscoverX KINOMEscan
T6 sequence (Q8NE63 1-616): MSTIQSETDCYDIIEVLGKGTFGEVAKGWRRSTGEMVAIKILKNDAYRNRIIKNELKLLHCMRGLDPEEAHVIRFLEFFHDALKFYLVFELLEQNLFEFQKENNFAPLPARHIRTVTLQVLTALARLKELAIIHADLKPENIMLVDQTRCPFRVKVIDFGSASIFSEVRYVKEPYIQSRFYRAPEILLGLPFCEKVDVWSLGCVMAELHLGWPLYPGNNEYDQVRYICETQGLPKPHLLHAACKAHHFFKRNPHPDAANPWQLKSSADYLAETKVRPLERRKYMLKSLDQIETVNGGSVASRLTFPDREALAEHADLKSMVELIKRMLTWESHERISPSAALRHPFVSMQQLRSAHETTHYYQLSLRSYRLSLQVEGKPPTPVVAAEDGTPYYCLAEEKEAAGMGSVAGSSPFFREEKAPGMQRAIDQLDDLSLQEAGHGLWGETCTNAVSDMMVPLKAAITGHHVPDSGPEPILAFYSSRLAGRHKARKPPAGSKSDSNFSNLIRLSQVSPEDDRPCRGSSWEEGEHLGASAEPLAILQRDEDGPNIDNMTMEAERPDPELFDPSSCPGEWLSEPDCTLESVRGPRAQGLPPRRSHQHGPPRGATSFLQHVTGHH

TEC = target: T7, TEC (Homo sapiens, UniProt P42680)
T7 construct: purchased Eurofins DiscoverX KINOMEscan
T7 sequence (P42680 1-631): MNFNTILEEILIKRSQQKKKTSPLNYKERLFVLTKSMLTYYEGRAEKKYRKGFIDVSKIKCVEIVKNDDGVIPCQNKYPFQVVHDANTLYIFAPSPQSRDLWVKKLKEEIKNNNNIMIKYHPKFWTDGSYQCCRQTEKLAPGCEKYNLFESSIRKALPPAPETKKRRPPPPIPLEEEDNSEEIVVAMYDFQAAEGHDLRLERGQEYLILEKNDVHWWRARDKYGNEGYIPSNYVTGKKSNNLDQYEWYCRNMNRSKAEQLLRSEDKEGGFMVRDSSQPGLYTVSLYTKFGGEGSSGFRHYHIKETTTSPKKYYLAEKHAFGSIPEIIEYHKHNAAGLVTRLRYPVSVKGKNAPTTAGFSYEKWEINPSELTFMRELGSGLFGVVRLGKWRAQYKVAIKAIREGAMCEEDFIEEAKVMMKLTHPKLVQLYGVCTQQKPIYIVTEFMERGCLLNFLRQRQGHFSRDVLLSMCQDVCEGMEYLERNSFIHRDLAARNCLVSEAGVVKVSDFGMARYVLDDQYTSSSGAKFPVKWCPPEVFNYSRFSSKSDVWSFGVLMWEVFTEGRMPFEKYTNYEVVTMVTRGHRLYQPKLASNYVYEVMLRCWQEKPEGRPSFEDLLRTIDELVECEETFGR

LOK = target: T8, LOK (Homo sapiens, UniProt O94804)
T8 construct: purchased Eurofins DiscoverX KINOMEscan
T8 sequence (O94804 whole entry): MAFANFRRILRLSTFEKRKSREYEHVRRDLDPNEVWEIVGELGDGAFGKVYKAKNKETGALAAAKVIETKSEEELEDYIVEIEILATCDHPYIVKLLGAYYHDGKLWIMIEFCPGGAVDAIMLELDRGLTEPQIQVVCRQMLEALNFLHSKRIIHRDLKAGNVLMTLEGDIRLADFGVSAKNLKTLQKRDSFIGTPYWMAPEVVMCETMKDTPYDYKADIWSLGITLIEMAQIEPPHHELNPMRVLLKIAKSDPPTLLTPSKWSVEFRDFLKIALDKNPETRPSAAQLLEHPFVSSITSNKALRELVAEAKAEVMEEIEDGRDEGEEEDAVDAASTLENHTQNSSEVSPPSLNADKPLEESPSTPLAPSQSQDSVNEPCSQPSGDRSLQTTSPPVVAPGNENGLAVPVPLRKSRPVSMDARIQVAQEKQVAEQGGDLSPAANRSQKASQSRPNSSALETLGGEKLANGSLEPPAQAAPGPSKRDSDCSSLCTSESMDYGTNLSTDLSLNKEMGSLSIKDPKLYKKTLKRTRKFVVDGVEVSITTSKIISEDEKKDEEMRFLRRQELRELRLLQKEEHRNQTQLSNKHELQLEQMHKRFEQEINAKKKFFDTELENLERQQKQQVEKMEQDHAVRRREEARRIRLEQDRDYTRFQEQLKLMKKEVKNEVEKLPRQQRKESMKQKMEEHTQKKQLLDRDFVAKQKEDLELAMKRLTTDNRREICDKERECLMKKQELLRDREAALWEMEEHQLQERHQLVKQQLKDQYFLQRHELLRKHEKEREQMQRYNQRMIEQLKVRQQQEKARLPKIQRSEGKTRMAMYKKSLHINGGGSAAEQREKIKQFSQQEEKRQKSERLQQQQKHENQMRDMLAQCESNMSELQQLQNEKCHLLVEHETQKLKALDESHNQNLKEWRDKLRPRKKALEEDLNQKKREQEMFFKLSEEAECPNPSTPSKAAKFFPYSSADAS

SRPK1 = target: T9, SRPK1 (Homo sapiens, UniProt Q96SB4)
T9 construct: purchased Eurofins DiscoverX KINOMEscan
T9 sequence (Q96SB4 whole entry): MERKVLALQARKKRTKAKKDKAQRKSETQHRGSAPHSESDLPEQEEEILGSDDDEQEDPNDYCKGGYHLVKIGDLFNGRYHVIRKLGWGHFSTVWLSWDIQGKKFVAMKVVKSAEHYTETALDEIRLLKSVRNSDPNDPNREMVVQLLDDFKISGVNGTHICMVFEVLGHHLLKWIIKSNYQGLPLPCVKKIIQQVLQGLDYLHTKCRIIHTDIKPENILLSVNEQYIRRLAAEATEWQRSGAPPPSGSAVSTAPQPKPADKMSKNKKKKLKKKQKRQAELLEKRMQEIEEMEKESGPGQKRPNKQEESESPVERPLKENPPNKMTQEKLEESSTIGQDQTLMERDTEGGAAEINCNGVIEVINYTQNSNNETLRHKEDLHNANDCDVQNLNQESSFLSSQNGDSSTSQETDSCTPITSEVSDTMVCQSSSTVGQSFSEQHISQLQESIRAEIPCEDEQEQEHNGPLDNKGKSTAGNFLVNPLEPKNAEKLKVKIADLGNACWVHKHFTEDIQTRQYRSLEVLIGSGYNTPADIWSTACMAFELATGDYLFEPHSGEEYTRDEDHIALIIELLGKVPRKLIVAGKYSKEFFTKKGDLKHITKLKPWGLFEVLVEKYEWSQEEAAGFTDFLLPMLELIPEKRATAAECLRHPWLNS

T1 sequence (P00533 25-1210 T790M/L858R limits assumed): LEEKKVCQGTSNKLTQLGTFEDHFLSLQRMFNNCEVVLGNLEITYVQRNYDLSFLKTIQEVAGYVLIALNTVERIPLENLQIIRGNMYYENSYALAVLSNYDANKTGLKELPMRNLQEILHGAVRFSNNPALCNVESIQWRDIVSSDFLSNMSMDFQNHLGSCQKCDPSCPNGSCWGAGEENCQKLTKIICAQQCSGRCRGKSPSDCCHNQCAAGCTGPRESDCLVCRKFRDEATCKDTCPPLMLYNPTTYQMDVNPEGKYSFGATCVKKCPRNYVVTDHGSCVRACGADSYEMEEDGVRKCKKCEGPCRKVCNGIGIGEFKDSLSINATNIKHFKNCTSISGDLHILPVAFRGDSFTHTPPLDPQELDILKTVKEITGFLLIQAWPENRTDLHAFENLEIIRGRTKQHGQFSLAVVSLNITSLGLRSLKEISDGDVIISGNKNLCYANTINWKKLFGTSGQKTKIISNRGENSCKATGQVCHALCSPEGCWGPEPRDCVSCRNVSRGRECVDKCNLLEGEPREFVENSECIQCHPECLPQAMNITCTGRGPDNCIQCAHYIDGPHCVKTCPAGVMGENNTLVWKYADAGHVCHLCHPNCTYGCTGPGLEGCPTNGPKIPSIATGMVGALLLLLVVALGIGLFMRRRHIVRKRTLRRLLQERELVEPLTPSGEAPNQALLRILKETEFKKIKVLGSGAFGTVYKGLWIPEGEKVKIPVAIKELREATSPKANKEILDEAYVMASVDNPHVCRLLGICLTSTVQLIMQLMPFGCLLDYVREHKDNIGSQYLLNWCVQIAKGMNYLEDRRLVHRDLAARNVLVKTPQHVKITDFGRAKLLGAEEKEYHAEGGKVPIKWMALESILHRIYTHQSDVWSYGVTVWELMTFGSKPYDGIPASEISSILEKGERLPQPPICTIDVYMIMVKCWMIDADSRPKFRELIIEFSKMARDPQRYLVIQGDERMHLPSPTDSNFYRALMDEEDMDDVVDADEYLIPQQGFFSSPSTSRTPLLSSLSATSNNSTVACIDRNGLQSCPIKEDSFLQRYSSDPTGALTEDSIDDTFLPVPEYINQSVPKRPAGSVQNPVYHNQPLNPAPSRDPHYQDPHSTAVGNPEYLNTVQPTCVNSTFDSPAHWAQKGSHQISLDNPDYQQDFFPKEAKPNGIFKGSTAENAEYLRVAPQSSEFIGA
T2 sequence (Q13464 whole entry): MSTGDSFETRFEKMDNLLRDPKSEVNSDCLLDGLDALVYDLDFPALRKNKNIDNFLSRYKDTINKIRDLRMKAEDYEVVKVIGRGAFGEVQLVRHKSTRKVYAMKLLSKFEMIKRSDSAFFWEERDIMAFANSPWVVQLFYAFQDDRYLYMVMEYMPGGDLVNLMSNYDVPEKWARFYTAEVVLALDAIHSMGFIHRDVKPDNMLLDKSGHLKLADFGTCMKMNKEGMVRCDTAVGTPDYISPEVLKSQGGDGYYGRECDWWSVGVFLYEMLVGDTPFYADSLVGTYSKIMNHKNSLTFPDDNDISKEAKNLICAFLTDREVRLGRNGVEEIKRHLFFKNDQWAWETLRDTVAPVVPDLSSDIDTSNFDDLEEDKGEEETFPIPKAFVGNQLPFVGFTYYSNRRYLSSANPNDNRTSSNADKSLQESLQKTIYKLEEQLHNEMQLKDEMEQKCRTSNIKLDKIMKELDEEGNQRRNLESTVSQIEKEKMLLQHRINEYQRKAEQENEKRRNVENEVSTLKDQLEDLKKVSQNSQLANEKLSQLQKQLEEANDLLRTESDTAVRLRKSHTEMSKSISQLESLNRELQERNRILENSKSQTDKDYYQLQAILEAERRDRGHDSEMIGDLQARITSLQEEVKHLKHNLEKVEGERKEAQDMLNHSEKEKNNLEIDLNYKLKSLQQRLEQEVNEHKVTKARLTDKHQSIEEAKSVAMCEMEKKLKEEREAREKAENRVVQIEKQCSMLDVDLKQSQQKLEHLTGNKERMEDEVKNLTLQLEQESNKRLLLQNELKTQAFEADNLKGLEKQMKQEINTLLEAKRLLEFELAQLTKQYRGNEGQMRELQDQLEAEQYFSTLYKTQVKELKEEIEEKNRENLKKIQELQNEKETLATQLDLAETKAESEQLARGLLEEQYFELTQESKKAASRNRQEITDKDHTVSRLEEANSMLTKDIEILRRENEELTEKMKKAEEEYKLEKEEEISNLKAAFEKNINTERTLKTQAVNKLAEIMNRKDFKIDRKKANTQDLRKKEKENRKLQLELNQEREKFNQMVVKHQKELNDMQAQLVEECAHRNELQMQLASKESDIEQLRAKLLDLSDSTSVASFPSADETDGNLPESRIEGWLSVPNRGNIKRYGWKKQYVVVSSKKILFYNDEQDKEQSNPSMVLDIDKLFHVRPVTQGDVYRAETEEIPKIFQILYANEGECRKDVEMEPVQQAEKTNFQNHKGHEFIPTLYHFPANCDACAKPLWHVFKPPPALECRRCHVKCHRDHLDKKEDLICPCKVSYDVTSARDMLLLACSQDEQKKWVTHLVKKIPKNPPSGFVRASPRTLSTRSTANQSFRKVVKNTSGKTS

Structure (SMILES) | remaining binding at 1 µM (EGFR(L858R,T790M)) [%] | remaining binding at 1 µM (ROCK1) [%] | remaining binding at 1 µM (AKT1) [%] | remaining binding at 1 µM (TAOK3) [%] | remaining binding at 1 µM (p38-beta) [%] | remaining binding at 1 µM (HIPK4) [%] | remaining binding at 1 µM (TEC) [%] | remaining binding at 1 µM (LOK) [%] | remaining binding at 1 µM (SRPK1) [%]
Clc1cc(NCC2CC2)c2ncc(-c3ccc4[nH]ncc4c3)n2n1 [compound 2, 6-Chloro-N-(cyclopropylmethyl)-3-(1H-indazol-5-yl)imidazo[1,2-b]pyridazin-8-amine] | 82 | 36 | 98 | 92 | 94 | 8.6 | 100 | 100 | 100
O=C(CN1CCOCC1)N[C@H]1CC[C@H](Nc2cc(Cl)nn3c(-c4ccc5[nH]ncc5c4)cnc23)CC1 [compound 26] | 90 | 22 | 100 | 91 | 94 | 5.1 | 97 | 100 | 79
CN1CCC(CNc2cc(Cl)nn3c(-c4cc5nc(Nc6ccccc6)[nH]c5cc4F)cnc23)CC1 [compound 31, 6-Chloro-3-(6-fluoro-2-(phenylamino)-1H-benzo[d]imidazol-5-yl)-N-((1-methylpiperidin-4-yl)methyl)imidazo[1,2-b]pyridazin-8-amine] | 100 | 76 | 100 | 77 | 99 | 71 | 88 | 91 | 84
